This is an account of results in patent US20240043410A1, “SULPHAMOYL UREA DERIVATIVES CONTAINING ALKYL-OXACYCLOALKYL MOIETY AND USES THEREOF” (NodThera Limited, priority 2020, published 2024).

≈ marks a conversion by molar mass, not a printed value.

Series [1] concerns P-glycoprotein (P-gp) or breast cancer resistance protein (BCRP). The series is described as follows: BCRP and P-gp Caco-2 permeability assay. In kind it is in vitro ADME. As to conditions: efflux ratio, Caco-2 cells. As for the experimental part: BCRP and P-gp Caco-2 Studies. The compounds of the present disclosure were tested in a Caco-2 permeability assay to assess whether they are actively transported out of cells by the efflux proteins, P-glycoprotein (P-gp) or breast cancer resistance protein (BCRP).
Caco-2 cells were used between passage numbers 40-60. Cells were seeded onto Millipore Multiscreen Transwell plates at […]. The cells were cultured in DMEM and media was changed every two or three days. On Day 18-22 the BCRP inhibition study was performed. Cell culture and assay incubations were carried out at 37° C. in an atmosphere of 5% CO2 with a relative humidity of 95%. On the day of the assay, the monolayers were prepared by rinsing both apical and basolateral surfaces twice with warmed (37° C.) transport buffer (Hanks Balanced Salt Solution [HBSS] containing 25 mM HEPES and 4.45 mM glucose, pH 7.4). Cells were then incubated with transport buffer containing test compound or positive control inhibitor (novobiocin) in both apical and basolateral compartments for 30 minutes at 37° C. For the inhibition studies a P-gp inhibitor or BCRP inhibitor was included on both sides of the monolayer for the equilibration period. The dosing solutions were prepared by diluting estrone 3-sulfate and test compound where applicable to give a final estrone 3-sulfate concentration of 1 μM (final DMSO concentration of 1% v/v). The fluorescent integrity marker lucifer yellow was prepared in receiver solutions in vehicle or test compound-containing transport buffer. After pre-incubation, the transport buffer was removed from both apical and basolateral compartments and replaced with the appropriate dosing or receiver solution. For assessment of B-A permeability, transport buffer was removed from the basolateral companion plate and replaced with dosing solution. Fresh transport buffer containing lucifer yellow and test compound where applicable (final DMSO concentration 1% v/v) was added to the apical compartment insert, which was then placed into the companion plate. After a 90-minute incubation the apical compartment inserts and the companion plates were separated and compartments sampled for analysis. Seven concentrations of compound (up to 100 μM) were assessed in addition to a vehicle control (0 μM). A triplicate determination of each concentration was performed. The positive control inhibitor was evaluated in parallel. [^3H]-estrone 3-sulfate was quantified by liquid scintillation counting to give disintegrations per minute (dpm). The integrity of the monolayer throughout the experiment was checked by monitoring lucifer yellow permeation using fluorimetric analysis. Corrected B-A apparent permeability (Papp) of probe substrate was calculated by subtracting its mean passive Papp determined in the presence of the highest concentration of positive control inhibitor (giving 100% transporter inhibition). The mean corrected B-A Papp from vehicle wells (0 μM test compound) was defined as 100% transport activity and this value was then used to calculate the percentage control transport activity for all other test compound concentrations. Percentage control transport activity was plotted against test compound concentration and fitted to calculate an IC50 value.
The efflux ratio (ER) values of compounds of the present disclosure are shown in Table B below (“****” means <3; “***” 3≥ and <10; “**” means ≥10 and <30; “*” means ≥30).
A general note: Caco-2 cells form a polarised layer with tight junctions and transporters.

In series [2] the test system is IL-1β release upon NLRP3 activation in peripheral blood mononuclear cells (PBMC). The series is described as follows: PBMC IC50 Determination Assay. In kind it is cell-based. As to conditions: Homo sapiens; LPS-primed PBMC stimulated with ATP (5 mM) or nigericin (10 μM); IL-1β by ELISA (Protocol A) or HTRF (Protocol B); salts tested. The method, then: PBMC IC50 Determination Assay. The compounds of the present disclosure were tested for their inhibitory activity against IL-1β release upon NLRP3 activation in peripheral blood mononuclear cells (PBMC).
Protocol A. PBMC were isolated from buffy coats by density gradient centrifugation on Histopaque-1077 (Sigma, cat no. 10771). Isolated cells were seeded into the wells of a 96-well plate and incubated for 3 h with lipopolysaccharide (LPS). Following medium exchange, the compounds of the present disclosure were added (a single compound per well) and the cells were incubated for 30 min. Next, the cells were stimulated either with ATP (5 mM) or nigericin (10 μM) for 1 h and the cell culture media from the wells were collected for further analysis. The release of IL1-β into the media was determined by a quantitative detection of IL-1β in the media using an IL-1β enzyme-linked immunosorbent assay (ELISA) Ready-SET-Go!, eBioscience cat. No. 88-7261-88. Briefly, in a first step, high affinity binding plates (Corning, Costar 9018 or NUNC Maxisorp Cat No. 44-2404) were coated overnight at 4° C. with specific capture antibody included in the kit (anti-human IL-1β ref. 14-7018-68). Subsequently, plates were blocked with blocking buffer for 1 h at room temperature (rt) and after washing with a buffer (PBS with 0.05% Tween-20) incubated with protein standard and culture media. After 2 h of incubation at rt, plates were washed and incubated with biotinylated detection antibody included in the kit (anti-human IL-1β Biotin ref. 33-7110-68) for 1 h at rt. Plates were washed and incubated with HRP-streptavidin for 30 min at rt and washed again. The signal was developed after addition of 3,3′,5,5′-tetramethylbenzidine-peroxidase (TMB) until colour appeared and the reaction was stopped by 2 M H2SO4. A microplate spectrophotometer (BioTek) was used to detect signals with 450 nm. The detection range of IL-1β 3 ELISA was 2-150 ng/mL.
Protocol B. PBMC were isolated from buffy coats by density gradient centrifugation on Histopaque-1077 (Sigma, cat no. 10771). Isolated cells were seeded into the wells (280,000 cells/well) of a 96-well plate and incubated for 3 h with lipopolysaccharide (LPS, 1 μg/mL diluted 1000× from a 1 mg/mL stock solution). The compounds of the present disclosure were added (a single compound per well) and the cells were incubated for 30 min. Next, the cells were stimulated with ATP (5 mM final concentration diluted 20× from a 100 mM stock solution) for 1 h and the cell culture media from the wells were collected for further analysis. The release of IL-1β into the media was determined by quantitative detection of IL-1 in the media using HTRF®, CisBio cat. No. 62HIL1BPEH. Briefly, cell culture supernatant were dispensed directly into the assay plate containing antibodies labelled with the HTRF® donor and acceptor. A microplate spectrophotometer (BMG) was used to detect signals at 655 nm and 620 nm. The detection range of IL-1β HTRF® was […].

Series [3] in a line: PAMPA permeability assay. The series is classed as in vitro ADME. As to conditions: 10 μM donor, PBS, 4 hours at room temperature, lecithin/dodecane membrane. As for the experimental part:
PAMPA Studies. The compounds of the present disclosure were tested in a PAMPA permeability assay to assess passive transcellular permeation.
Protocol. 0.2 mM working solution was prepared by diluting 10 mM stock solution with DMSO. 10 μM donor solution (5% DMSO) was prepared by diluting 20 μL of working solution with 380 μL PBS. 150 μL of 10 μM donor solutions to each well of the donor plate, whose PVDF membrane was precoated with 5 μL of 1% lecithin/dodecane mixture. Duplicates were prepared. 300 μL of PBS was added to each well of the PTFE acceptor plate. The donor plate and acceptor plate were combined and incubated for 4 hours at room temperature with shaking at 300 rpm. Preparation of TO sample: 20 μL donor solution was transferred to new well followed by the addition of 250 μL PBS (DF: 13.5), 130 μL ACN (containing internal standard) as TO sample. Preparation of acceptor sample: The plate was removed from incubator. 270 μL solution was transferred from each acceptor well and mixed with 130 μL ACN (containing internal standard) as acceptor sample. Preparation of donor sample: 20 μL solution was transferred from each donor well and mixed with 250 μL PBS (DF: 13.5), 130 μL ACN (containing internal standard) as donor sample. Acceptor samples and donor samples were all analysed by LC-MS/MS.
The measured PAMPA permeability values of compounds of the present disclosure are shown in Table B below (“$$$$” means >10 nm/“$$$” means ≥3 and <10 nm/s; “$$” means ≥1 and <3 nm/s; “$” means <1 nm/s).
On the technique in general: In PAMPA a lipid-coated filter parts donor from acceptor wells.

The nature of series [4]: Thermodynamic (equilibrium) solubility assay. As to conditions: aqueous buffer, thermodynamic from solid; 50 mM pH 7.4 phosphate buffer, 24 hours at room temperature. The series is classed as physicochemical. As for the experimental part: Thermodynamic Solubility Studies. The compounds of the present disclosure were tested in an equilibrium solubility assay.
An appropriate amount of test and control compounds were weighed into lower chambers of Whatman Mini-UniPrep vials. To these were added 50 mM pH 7.4 phosphate buffer (450 μL) to get a super-saturated suspension. The samples were vortexed for at least 2 minutes. The Whatman Mini-UniPrep vials were shaken on a shaker for 24 hours at room temperature at 800 rpm. The vials were centrifuged for 20 minutes (eg. 4000 rpm). Samples were compressed to prepare filtrates for injection into HPLC system and the concentration calculated with a standard curve. […] As shown in the table, compounds of the present disclosure may display improved properties (e.g., over the compounds in the prior art), such as enhanced potency, solubility, membrane permeability and transporter efflux.

`Cn1cc(N(CC2CCCCO2)S(=O)(=O)NC(=O)Nc2c3c(cc4c2CCC4)CCC3)cn1` (centres unmarked) [Compound 6, Sodium [(1,2,3,5,6,7-hexahydro-s-indacen-4-yl)carbamoyl][(1-methyl-1H-pyrazol-4-yl)[(oxan-2-yl)methyl]sulfamoyl]azanide]: the “Caco-2 ER” value in series [1] is on record as “**** (“****” means <3)”. Moreover, the IC50 in series [2] was under 100 nM. For the same compound, the “PAMPA Pe” value in series [3] was “$$$$ (“$$$$” means >10 nm/)”. Besides, the solubility (thermodynamic) at 24 h in series [4] fell in the range of 3000 to 10000 µg/mL.
Regarding `Cn1cc(N(CC2CCOC2)S(=O)(=O)NC(=O)Nc2c3c(cc4c2CCC4)CCC3)cn1` (centres unmarked) [Compound 4], the “Caco-2 ER” value in series [1] is “** (“**” means ≥10 and <30)”. In addition, in series [2], the 50% inhibitory concentration (IC50) is 100 to 1000 nM. Besides, in series [3], the “PAMPA Pe” value is recorded as “$ (“$” means <1 nm/s)”. For the same compound, the thermodynamic solubility at 24 h in series [4] is 1000 to 3000 µg/mL (≈ 2.18 to 6.53 mM).
For the compound `Cn1cc(N(C[C@H]2CCCO2)S(=O)(=O)NC(=O)Nc2c3c(cc4c2CCC4)CCC3)cn1` [Compound 1B, Sodium [(1,2,3,5,6,7-hexahydro-s-indacen-4-yl)carbamoyl][(1-methyl-1H-pyrazol-4-yl)({[(2R)-oxolan-2-yl]methyl})sulfamoyl]azanide], the “Caco-2 ER” value in series [1] is “**** (“****” means <3)”. Further, in series [2], the IC50 was under 100 nM. The “PAMPA Pe” value in series [3] is “$$ (“$$” means ≥1 and <3 nm/s)”. The compound also came in with a thermodynamic solubility at 24 h in series [4] of 1000 to 3000 µg/mL.
In the case of `Cn1cc(N(C[C@@H]2CCCO2)S(=O)(=O)NC(=O)Nc2c3c(cc4c2CCC4)CCC3)cn1` [Compound 1A, Sodium [(1,2,3,5,6,7-hexahydro-s-indacen-4-yl)carbamoyl][(1-methyl-1H-pyrazol-4-yl)({[(2S)-oxolan-2-yl]methyl})sulfamoyl]azanide], the “Caco-2 ER” value in series [1] was “**** (“****” means <3)”. For the same compound, in series [2], the IC50 was under 100 nM. Further, in series [3], the “PAMPA Pe” value was “$$ (“$$” means ≥1 and <3 nm/s)”. Besides, in series [4], the solubility (thermodynamic) at 24 h is 3000 to 10000 µg/mL.
Take `Cn1cc(N(CCC2CCCO2)S(=O)(=O)NC(=O)Nc2c3c(cc4c2CCC4)CCC3)cn1` (centres unmarked) [Compound 5, Sodium [(1,2,3,5,6,7-hexahydro-s-indacen-4-yl)carbamoyl][(1-methyl-1H-pyrazol-4-yl)[2-(oxolan-2-yl)ethyl]sulfamoyl]azanide]: the “Caco-2 ER” value in series [1] was “*** (“***” 3≥ and <10)”. The IC50 in series [2] lay in the range of 100 to 1000 nM. For the same compound, the “PAMPA Pe” value in series [3] is “$$ (“$$” means ≥1 and <3 nm/s)”. The same compound registered a solubility (thermodynamic) at 24 h in series [4] of 3000 to 10000 µg/mL.

One may read the IC50 as the midpoint of a concentration-inhibition curve. What is called thermodynamic solubility is solubility found after equilibrating the solid with the medium.
